Test results reported in BigSolDB 2.1.

CC1=NN(c2ccccc2)C(=O)C1
solubility (mole fraction)
Details | 283.15 K | 288.15 K | 293.15 K | 298.15 K | 303.15 K | 308.15 K | 313.15 K | 318.15 K | 323.15 K | 328.15 K
in 1,2-dichloroethane | 0.0262 | 0.0304 | 0.0358 | 0.0417 | 0.0496 | 0.058 | 0.0676 | 0.0767 | 0.089 | –
in 2-butanone | 0.02 | 0.024 | 0.0313 | 0.0372 | 0.0437 | 0.0557 | 0.0678 | 0.081 | 0.121 | –
in MIBK | 0.0107 | 0.0138 | 0.0198 | 0.0243 | 0.0311 | 0.0365 | 0.0414 | 0.0495 | 0.0609 | –
in dimethyl carbonate | 0.0118 | 0.0138 | 0.0166 | 0.0201 | 0.0257 | 0.0316 | 0.0384 | 0.0458 | 0.0573 | –
in ethyl lactate | 0.0293 | 0.0319 | 0.0352 | 0.0392 | 0.0424 | 0.0486 | 0.0531 | 0.0594 | 0.0735 | –
in isobutyl acetate | – | 0.0109 | 0.0123 | 0.0142 | 0.0162 | 0.0192 | 0.0229 | 0.0268 | 0.0309 | 0.0367
in isopentanol | 0.0191 | 0.021 | 0.023 | 0.0261 | 0.0282 | 0.0312 | 0.0353 | 0.0403 | 0.0466 | –
in isopropyl acetate | 0.00972 | 0.0117 | 0.0141 | 0.0162 | 0.0187 | 0.0223 | 0.0265 | 0.032 | 0.036 | –
in methyl acetate | 0.0161 | 0.0182 | 0.0201 | 0.0237 | 0.0266 | 0.0299 | 0.0349 | 0.0422 | 0.0477 | –
in n-butyl acetate | 0.0124 | 0.0142 | 0.0164 | 0.0195 | 0.0227 | 0.0265 | 0.0305 | 0.037 | 0.0423 | –
in n-hexane | 0.000173 | 0.000226 | 0.000394 | 0.00052 | 0.000662 | 0.000963 | 0.00136 | 0.00172 | 0.00211 | –
in n-propyl acetate | 0.0142 | 0.0169 | 0.0197 | 0.0228 | 0.0276 | 0.0318 | 0.0384 | 0.0451 | 0.0551 | –
